Where two headings read alike, the source gives them in different places. One block for each molecule: values may come before it.
What was measured:
[1] = Pharmacokinetics of chlorogenic acids; assay type: in vivo, human; details: for AUC0–4 h / tmax: analyte in blood after product 1, oral, healthy male subjects; for AUC0–4 h: mean (SD); for tmax: median (min, max)
[2] = analytical recovery test in plasma; cited from earlier work
[3] = healthy subjects, 412 μmol of CGA in 200 mL of coffee; cited from earlier work
[4] = cited from earlier work
[5] = assay type: in vivo, human
[6] = 60 mg of caffeine, single oral dose, healthy male subjects
[7] = after product 1, relative to 4‐CQA
[8] = after product 1, relative to 5‐CQA

SMILES: O=C(/C=C/c1ccc(O)c(O)c1)O[C@H]1[C@H](O)C[C@](O)(C(=O)O)C[C@H]1O [4‐CQA, 4‐O‐caffeoylquinic acid]
- AUC0–4 h [1]: 16.1 (9.80) ng·h/mL
- tmax [1]: 1.00 (0.75, 4.00) h

SMILES: COc1cc(CCC(=O)O)ccc1O [dihydroferulic acid]
- tmax in plasma [3]: 5.2 h

SMILES: Cn1c(=O)c2c(ncn2C)n(C)c1=O [caffeine]
- caffeine half‐life ([4]; adult men, dose of 4 mg/kg): 2.5 to 4.5 h
- mean half‐life of caffeine in plasma ([4]; healthy individuals): about 5 hours
- known half‐life of caffeine ([4]; stated as known): ~5 h
- known tmax of caffeine ([4]; stated as known): approximately 60 minutes

SMILES: Cn1c(=O)c2c(ncn2C)n(C)c1=O [Product 2, caffeine]
- GMR (90%CI) of AUC0–4 h of caffeine ([5]; geometric least‐squares mean ratio, product 1 to product 2): 98.33%
- AUC(0-t) ([5]; male, human, serum, oral, 60 mg): 5600 ng·h/mL
- Cmax ([5]; male, human, serum, po, 60 mg): 2090 ng/mL
- tmax ([5]; male, human, serum, po, 60 mg): 0.63 h
- adverse events [6]: no adverse events

Further lines, with some results ahead:

- AUC0–4 h [1]: 15.7 (10.4) ng·h/mL
- tmax [1]: 1.50 (0.75, 2.50) h
SMILES: O=C(/C=C/c1ccc(O)c(O)c1)O[C@@H]1C[C@](O)(C(=O)O)C[C@@H](O)[C@H]1O [5‐CQA, 5‐O‐caffeoylquinic acid]
- hydrolyzed into caffeic acid [2]: ~7%

- AUC0–4 h greater than that of 4‐CQA [1, 7]: ~41%
- concentration (Cmax) greater than that of 4‐CQA [1, 7]: 60%
- AUC0–4 h greater than that of 5‐CQA [1, 8]: 42.5%
- concentration (Cmax) greater than that of 5‐CQA [1, 8]: 58%
SMILES: O=C(/C=C/c1ccc(O)c(O)c1)O[C@@H]1C[C@](O)(C(=O)O)C[C@@H](O)[C@H]1O [3‐CQA, 3‐O‐caffeoylquinic acid]
